Laboratory results published in US9221914B2, “Agents targeting CD138 and uses thereof” (BIOTEST AG, priority 2007, dated 2015).

What was measured:
[1] = tested on: MOLP-8 human multiple myeloma xenografts; experiment: MOLP-8 human multiple myeloma xenograft in CB.17 SCID mice (Xenograft Mouse Experiments A, Part I); format: in vivo
Method: In these mice, subcutaneous tumors were established (female CB.17 SCID mice) by inoculation with MOLP-8 cell suspensions. Treatment with a single bolus intravenous injection was conducted when tumor volumes reached an average 113 mm^3. Changes in tumor volume and body weight were monitored twice per week.
Female CB.17 SCID mice, five weeks old, were obtained from Charles River Laboratories.
MOLP-8, a human multiple myeloma cell line, was supplied from ATCC.
Each mouse was inoculated with 1×10^7 MOLP-8 cells subcutaneously into the area under the right shoulder. The total volume was 0.2 ml per mouse, in which the ratio of serum-free medium to matrigel (BD Bioscience, Bedford, Mass.) was 1/1 (v/v). Prior to treatment, the xenograft tumors were monitored daily and were allowed to become established.
Eleven days after tumor cell inoculation, 42 mice were selected based on tumor volumes and body weights. […] The forty-two mice were randomly divided into seven groups (A-G) of six animals each based on tumor volume.
Each of six mice in Group A received 200 μl of PBS as vehicle control.
All agents were intravenously administered as a single bolus injection through a lateral tail vein with a 1 ml syringe fitted with a 27 gauge, ½ inch needle.
(§1) Tumor size was measured twice per week in three dimensions using the LabCat System (Tumor Measurement and Tracking, Innovative Programming Associated, Inc., Princeton, N.J.). The tumor volume in mm^3 was calculated using the methodology described in Tomayko et al., Cancer Chemother.

[2] = tested on: MOLP-8 tumor xenografts; experiment: Bulky MOLP-8 tumor xenograft model in SCID mice (Part II / Xenograft Mouse Experiments B); format: in vivo; details: 450 μg/kg dose; mean time to reach 160 mm^3 minus mean time of control group
Method: In a second set of experiments, MOLP-8 cells (1.5×10^7 cells per mouse), suspended in a 50:50 mixture of serum free media and matrigel were injected subcutaneously in the area under the right shoulder in 100 μl. […] Each mouse in the control group (n=6) received 0.2 ml of sterile PBS administered into the lateral tail vein (i.v.) in a bolus injection. All treatment doses were based on conjugated maytansinoid. […] Mice were randomized into eleven groups (n=6) by tumor volume using the LabCat Program. […] The mice were dosed based on the individual body weight.
as §1
In this set of experiments, eighty-five mice were inoculated with MOLP-8 cells (1.5×10^7 cells/mouse) subcutaneously in the right shoulder.

Substance: B-B4-SPP-DM1 [reference compound]
- homogeneity of anti-tumor activity in individual mice ([1]; 250 μg/kg single i.v. dose): more heterogeneously and therefore less predicable
- median tumor volume over time post-inoculation ([1]; 250 μg/kg single i.v. dose, data not shown): relatively better results for B-B4-SPP-DM1 than for nBT062-SPP-DM1
- effect on tumor growth compared with PBS-treated animals ([1]; single i.v. bolus, 250 μg/kg (nBT062 antibody […])): marked delay in tumor growth

Substance: nBT062-DM1: nBT062 conjugate with DM1, linker not stated at this place; TGD matches nBT062-SMCC-DM1
- TGD (days), tumor growth delay [2]: 18 days
